Counter-ions that a name gives are not always drawn.
Tested on: SL-induced scratching behavior in mice
Test: Inhibitory effect against sodium laurate-induced scratching behavior in mice
Assay type: in vivo, male ICR mice
Conditions: topical; for (b) average percentage of the number of scratches for 60 minutes relative to solvent control group taken as 100% / (a) mean plus/minus standard deviation of the number of scratches for 60 minutes: 10% SL 50 μL on rostral back, 90 min later 50 μL of 2.5% by mass test substance in 50% ethanol; for (a) mean plus/minus standard deviation of the number of scratches for 60 minutes: solvent control 80±2; for judgment of effectiveness as HDC activation inhibitor (antipruritic agent); effective if number of scratches is 80% or less of solvent control: 10% SL, 2.5% by mass test substance in 50% ethanol
Description: Test substances were evaluated for their HDC activation inhibitor (antipruritic agent) effect on the basis of their inhibitory effect on mice's scratching behavior induced by irritation with SL. The test substances used were apigenin, luteolin, sterubin, prunetin, tannic acid, chlorogenic acid, resveratrol, diphenhydramine hydrochloride, and d-chlorpheniramine maleate. Among these substances, diphenhydramine hydrochloride and d-chlorpheniramine maleate were conventionally known as antihistamic agents and served as comparative test substances.
Procedure: the test animals used were male ICR mice aged 7-8 weeks. At least 3 days before the test was conducted, the mice were shaved over a 6 cm^2 (2×3 cm) area on the rostral back.
The mice were divided into test substance group (n=3 or 4) and solvent control group (n=3). Fifty microliters of a 10% SL aqueous solution was applied to the rostral back of the mice to induce the mice's scratching behavior. Ninety minutes after the application of the SL solution, fifty microliters of a solution prepared with 50% ethanol to give a test substance concentration of 2.5% by mass was applied to the rostral back of the mice of the test substance group, and fifty microliters of 50% ethanol alone was applied to that of the solvent control group. The scratching behavior in the mice was evaluated by the following procedure.
More specifically, the mice treated as above were housed in acrylic cages (26×18×30 cm) divided into 4 sections, one mouse per section, and after the mice were acclimated for at least 30 minutes in an unattended environment, the behavior of the mice was recorded on video for 60 minutes. The recorded video was reviewed to check for the scratching behavior of the mice and visually count the number of a series of scratching behaviors which consist of an animal scratching the rostral back with a posterior leg and putting down the leg. Additionally, in the untreated group (n=4), the mice shaved on the rostral back but not treated with any of a SL solution, a test substance or 50% ethanol were evaluated for their scratching behavior by the same procedure.
According to these evaluation results, the number of scratches for 60 minutes is about 80 to 90 times in the solvent control, diphenhydramine hydrochloride, and d-chlorpheniramine maleate groups, while that number is about 40 times or less in all the test substance groups from apigenin to resveratrol. Regarding the inhibitory effect of the test substances on the number of scratches in mice, a possible criterion for judgment is that a test substance be judged to be effective as the HDC activation inhibitor (antipruritic agent) of the present invention if the number of scratches in the test substance group is 80% or less of that in the solvent control group.
In addition, with regard to FIG. 4, the values of the following two variables are listed below for each group: (a) the mean plus/minus standard deviation of the number of scratches for 60 minutes, and (b) the average value for the percentage of the number of scratches for 60 minutes in each group relative to that in the solvent control group which is taken as 100%.

Row | Compound | (b) average percentage of the number of scratches for 60 minutes relative to solvent control group taken as 100% | (a) mean plus/minus standard deviation of the number of scratches for 60 minutes | judgment of effectiveness as HDC activation inhibitor (antipruritic agent); effective if number of scratches is 80% or less of solvent control
1 | O=c1cc(-c2ccc(O)cc2)oc2cc(O)cc(O)c12 [Apigenin, apigenin] | 40.5% | 32±5 | –
2 | O=c1cc(-c2ccc(O)c(O)c2)oc2cc(O)cc(O)c12 [Luteolin, luteolin] | 43.0% | 34±3 | –
3 | O=C(OC[C@H]1O[C@@H](OC(=O)c2cc(O)c(O)c(OC(=O)c3cc(O)c(O)c(O)c3)c2)[C@H](OC(=O)c2cc(O)c(O)c(OC(=O)c3cc(O)c(O)c(O)c3)c2)[C@@H](OC(=O)c2cc(O)c(O)c(OC(=O)c3cc(O)c(O)c(O)c3)c2)[C@@H]1OC(=O)c1cc(O)c(O)c(OC(=O)c2cc(O)c(O)c(O)c2)c1)c1cc(O)c(O)c(OC(=O)c2cc(O)c(O)c(O)c2)c1 [Tannic acid, tannic acid] | 53.7% | 43±22 | –
4 | CN(C)CC[C@@H](c1ccc(Cl)cc1)c1ccccn1.O=C(O)/C=C\C(=O)O [D-chlorpheniramine maleate, d-chlorpheniramine maleate, reference compound] | 113.6% | 91±28 | not certain
5 | Oc1ccc(/C=C/c2cc(O)cc(O)c2)cc1 [Resveratrol, 3,5,4′-trihydroxy-trans-stilbene] | 31.7% | 25±14 | –
6 | COc1cc(O)c2c(=O)c(-c3ccc(O)cc3)coc2c1 [Prunetin, prunetin] | 52.7% | 42±11 | –
7 | COc1cc(O)c2c(c1)O[C@H](c1ccc(O)c(O)c1)CC2=O [Sterubin, sterubin] | 44.4% | 35±14 | –
8 | CN(C)CCOC(c1ccccc1)c1ccccc1 [Diphenhydramine hydrochloride, diphenhydramine hydrochloride, reference compound] | 93.8% | 75±25 | not certain
9 | O=C(/C=C/c1ccc(O)c(O)c1)O[C@@H]1C[C@](O)(C(=O)O)C[C@@H](O)[C@H]1O [Chlorogenic acid, chlorogenic acid] | 50.8% | 41±8 | –

— patent US20150202243A1, “HDC Activation Inhibitor, HDC Activation Inhibition Composition, Antipruritic Agent, and Antipruritic Agent Composition” (HOYU CO., LTD., priority 2012, published 2015)
